Literature values in US20140234406A1, “NOVEL NANOPARTICULATE SUSPENSION FOR INCORPORATING FAT-SOLUBLE VITAMINS IN THE TREATMENT OF HAIR THINNING and HAIR LOSS” (HairRx, priority 2013, published 2014).

Conditions: biological half-life; reported by Yap et al. 2001 and Schwedhelm et al. 2003

half-life: 73 to 81 h
Structure (SMILES): Cc1c(C)c2c(c(C)c1O)CC[C@@](C)(CCC[C@H](C)CCC[C@H](C)CCCC(C)C)O2 [alpha-tocopherol]
